This passage reports IC50 and activity results from patent US9505765B2, “4-alkoxy/aralkoxy-5-substituted-pyrrolopyrimidine compounds as TAK1 inhibitors in disease treatment” (Confluence Life Sciences Inc., priority 2012, dated 2016).

For one assay, the system named is A549 cells. The assay can be described thus: IL-1β stimulated IL-6 Production in A549 cells. It is filed as cell-based. The settings on record: Homo sapiens, 1 ng/ml rhIL1β, 18 hrs; for IC50: read-out: IL-6 Production IC; for activity at 5 µM: 5 μM compound, read-out: IL-6 Production % Control 5 μM; for activity at 50 µM: 50 μM compound, read-out: IL-6 Production % Control 50 μM. The method, then: IL-1β stimulated IL-6 Production in A549 cells: The cellular efficacy of compound candidates is determined using the human lung epithelial cell line A549 (ATCC #CCL-185), based upon the methods of Wheeler et al. (2004) J. Nutrition 134, 1039-1044, and Eda et al. (2011) Cell Biol. Int. 35, 355-358. A549 cells produce a number of cytokines (IL6, IL8 and TNFα) in response to stimulation with IL1β. To induce the production of inflammatory mediators, A549 cells are plated at a final concentration of 3×10^5 cells/well of a 96 well flat bottom plate in F12-K medium supplemented with 10% fetal bovine serum, 100 units/ml penicillin and 100 μg/ml streptomycin (Gibco BRL Life Technologies). Cells are treated with or without inhibitors for 3 hrs then stimulated with 1 ng/ml rhIL1β (R & D Systems) for an additional 18 hrs at 37° C. with 5% CO2. The supernatants are removed and stored at −20° C. until they are to be assayed. The levels of inflammatory mediators are determined using commercial MSD cytokine kits (Meso Scale Discovery) as per the manufacturer's instructions. Standard curves are based on 7 steps of 4× serial dilutions, with a wide dynamic range of 10000 pg/ml to 2.4 pg/ml, and the blank in triplicate. Lower limit of detection (LLOD) is calculated at the commonly used 3× the standard deviation of the blank.
Compounds were tested in accordance with the above described assay, yielding the values described below: […]

A further assay deals with TAK1-TAB1 (Homo sapiens (Human), UniProt O43318). The assay can be described thus: TAK1-TAB1 competitive binding assay (LanthaScreen), without pre-incubation. The settings on record: 10 nM TAK1-TAB1, 100 nM kinase tracer-236, read-out: TAK1-TAB1 Inhibition IC50. The text has this: TAK1-TAB1 Binding Inhibitory Potency: The ability of candidate compounds to interact with TAK1-TAB1 is quantitated by a competitive binding assay using the LanthaScreen technology developed by Life Technologies. This assay is based on the binding of a proprietary, Alexa Fluor® 647-labeled, ATP-competitive kinase inhibitor (kinase tracer-236) to the TAK1-TAB1 construct in presence of a europium-conjugated antibody, resulting in a FRET (fluorescence resonance energy transfer) signal. Displacement of the kinase tracer by compound results in a lower emission ratio upon excitation of the europium chelate. Candidate compounds are designed as potential irreversible inhibitors of TAK1-TAB1, capable of ligating to an active site cysteine residue. The time dependent nature of irreversible inhibition is investigated by performing the binding assay with and without a pre-incubation of compound and TAK1-TAB1.
TAK1-TAB1, sequence (O43318 other isoform, or with tags, fused parts or gaps): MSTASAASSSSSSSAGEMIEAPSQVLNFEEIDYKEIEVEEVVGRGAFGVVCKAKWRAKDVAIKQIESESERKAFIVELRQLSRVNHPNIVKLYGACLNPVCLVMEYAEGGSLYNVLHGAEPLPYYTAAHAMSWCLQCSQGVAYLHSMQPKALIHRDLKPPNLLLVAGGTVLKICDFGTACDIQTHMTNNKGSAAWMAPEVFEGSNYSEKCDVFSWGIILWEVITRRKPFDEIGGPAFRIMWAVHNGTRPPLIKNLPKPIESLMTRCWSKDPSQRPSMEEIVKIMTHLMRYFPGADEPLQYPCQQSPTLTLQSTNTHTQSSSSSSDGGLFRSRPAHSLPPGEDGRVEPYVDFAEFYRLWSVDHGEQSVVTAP
The inhibitory potency of candidate compounds is measured in 20 mM HEPES pH 7.5, 10 mM MgCl2, 0.01% BSA, 0.0005% Tween-20, and 2% DMSO in the presence of 10 nM TAK1-TAB1, 2 nM Eu-anti-his antibody, and 100 nM kinase tracer-236 using a 384-well plate format. Background signal is defined in the absence of TAK1-TAB1 and uninhibited signal is defined in the presence of vehicle (2% DMSO) alone. Compounds were evaluated in an 11 point dose-response ranging from 20 μM to 0.34 nM. The binding assays are performed under two conditions to evaluate time dependence of inhibition. For the pre-incubation assay, TAK1-TAB1 and Eu-anti-his antibody are preincubated with compound or vehicle for two hours prior to the addition of kinase tracer. The non-preincubated assay is run in which TAK1-TAB1 and Eu-anti-his antibody are added to a mixture of compound and kinase tracer. IC50 values of compounds are determined using a 4 parameter logistical fit of emission ratio as a function of the concentration of compound.
Compounds were tested in accordance with the above described assay, without pre-incubation, yielding the values described below: […]

On to `COC(=O)/C(C)=C/c1c[nH]c2ncnc(OCC(C)C)c12` [Example 177, (E)-methyl 3-(4-isobutoxy-7H-pyrrolo[2,3-d]pyrimidin-5-yl)-2-methylacrylate], for which, in the assay on A549 cells, the IC50 came out at 620 nM, the activity at 5 µM stood at 0% and the activity at 50 µM turned out to be 0%.
In the case of `COC(=O)/C=C/c1c[nH]c2ncnc(OCC(C)C)c12` [Example 176, (E)-methyl 3-(4-isobutoxy-7H-pyrrolo[2,3-d]pyrimidin-5-yl)acrylate], at TAK1-TAB1, the IC50 came out at 200 nM. Besides, in the assay with A549 cells, the activity at 5 µM was determined as 1% and the activity at 50 µM turned out to be 0%.
As for `CCC(=O)/C=C/c1c[nH]c2ncnc(OCC(C)C)c12` [Example 175, (E)-1-(4-isobutoxy-7H-pyrrolo[2,3-d]pyrimidin-5-yl)pent-1-en-3-one], the IC50 at TAK1-TAB1 came out at 200 nM. In the assay with A549 cells, the IC50 was 990 nM, the activity at 5 µM turned out to be 3% and the activity at 50 µM stood at 0%.
In the case of `CC(=O)/C=C/c1c[nH]c2ncnc(OCC(C)C)c12` [Example 37, (E)-4-(4-isobutoxy-7H-pyrrolo[2,3-d]pyrimidin-5-yl)but-3-en-2-one], the IC50 at TAK1-TAB1 is 100 nM.
Regarding `CC(C)COc1ncnc2[nH]cc(/C=C/C(=O)NC[C@@H](C)O)c12` [Example 183, (R,E)-N-(2-hydroxypropyl)-3-(4-isobutoxy-7H-pyrrolo[2,3-d]pyrimidin-5-yl)acrylamide], at TAK1-TAB1, the IC50 stood at 2500 nM. In addition, in the assay on A549 cells, the IC50 turned out to be 12000 nM, the activity at 5 µM worked out at 78% and the activity at 50 µM is 1%.
The like results for `CC(C)COc1ncnc2[nH]cc(/C=C/C(=O)NC3CC3)c12` [Example 181, (E)-N-cyclopropyl-3-(4-isobutoxy-7H-pyrrolo[2,3-d]pyrimidin-5-yl)acrylamide] were, in that order, 180 nM, 180 nM, 1% and 0%.
On to `C=C(C#N)c1c[nH]c2ncnc(OCC(C)C)c12` [Example 197, 2-(4-isobutoxy-7H-pyrrolo[2,3-d]pyrimidin-5-yl)acrylonitrile], for which the IC50 at TAK1-TAB1 is 750 nM. In the assay with A549 cells, the activity at 5 µM turned out to be 128% and the activity at 50 µM is 75%.
Regarding `CNC(=O)/C=C/c1c[nH]c2ncnc(OCC(C)C)c12` [Example 39, (E)-3-(4-isobutoxy-7H-pyrrolo[2,3-d]pyrimidin-5-yl)-N-methylacrylamide], the IC50 on TAK1-TAB1 is 41 nM. Besides, in the assay on A549 cells, the IC50 turned out to be 43 nM, the activity at 5 µM amounted to 0% and the activity at 50 µM stood at 0%.
As for `CC(C)COc1ncnc2[nH]cc(C#CC(N)=O)c12` [Example 186, 3-(4-isobutoxy-7H-pyrrolo[2,3-d]pyrimidin-5-yl)propiolamide], in the assay with A549 cells, the IC50 was determined as 850 nM, the activity at 5 µM amounted to 1% and the activity at 50 µM turned out to be 0%.
In the case of `NC(=O)/C=C/c1c[nH]c2ncnc(OCc3cccc(F)c3)c12` [Example 194, (E)-3-(4-((3-fluorobenzyl)oxy)-7H-pyrrolo[2,3-d]pyrimidin-5-yl)acrylamide], in the assay on A549 cells, the IC50 worked out at 43 nM, the activity at 5 µM came to 1% and the activity at 50 µM was 1%.
As to `N#C/C=C/c1c[nH]c2ncnc(OCc3ccccc3)c12` [Example 93, (E)-3-(4-benzyloxy-7H-pyrrolo[2,3-d]pyrimidin-5-yl)-acrylonitrile], in the assay on A549 cells, the IC50 worked out at 2200 nM, the activity at 5 µM stood at 21% and the activity at 50 µM was 15%.
With `CC(C)COc1ncnc2[nH]cc(/C=C\C#N)c12` [Example 36, (Z)-3-(4-isobutoxy-7H-pyrrolo[2,3-d]pyrimidin-5-yl)acrylonitrile], the IC50 on TAK1-TAB1 came out at 170 nM.
Regarding `CC(C)COc1ncnc2[nH]cc(/C=C/C#N)c12` [Example 35, (E)-3-(4-isobutoxy-7H-pyrrolo[2,3-d]pyrimidin-5-yl)acrylonitrile], on TAK1-TAB1, the IC50 turned out to be 210 nM.
